Measured values from article PMC4999073 (PLoS ONE, 2016).
Each block holds one compound with its values, some of them ahead of it. Where a SMILES comes first, the peptide text is derived from it.

How the values were obtained:
Human Cat H = Human Cat H (Homo sapiens, UniProt P09668); conditions: 12.5 μM defensin, 125 nM Cat H (S:E 100), 0.1 M sodium acetate pH 5.5, 2 mM DTT, 0.01% Brij35, 4 h, 30°C; RP-HPLC, 220 nm
Human Cat K = Human Cat K (Homo sapiens, UniProt P43235); conditions: 12.5 μM defensin, 125 nM Cat K (S:E 100), 0.1 M sodium acetate pH 5.5, 2 mM DTT, 0.01% Brij35, 4 h, 30°C; RP-HPLC, 220 nm
[1] = system: Staphylococcus aureus ATCC 29740; conditions: radial diffusion assay; defensin alone or reaction mixture after 4 h at 30°C with cathepsin (S:E molar ratio 100), 0.1 M sodium acetate pH 5.5, 2 mM DTT, 0.01% Brij35; mean ± SEM, n = 3; NI: no inhibition detected
Excerpt: (§1) The reaction mixture without defensin added was used as negative control and the defensin alone was used as positive control. […] The strain Salmonella enterica serovar Typhimurium LT2 was kindly provided by Dr Benoît Doublet (INRA, UMR1282 ISP, Nouzilly, France). The strain Streptococcus salivarius was a clinical strain isolated from blood culture, kindly provided by Dr Christine Delorme (INRA, UMR1319 MICALIS, Jouy en Josas, France).
(§2) A Mann-Whitney non-parametric U test was used to compare the minimal inhibitory concentration of each defensin before and after incubation with cathepsins.

[2] = system: Escherichia coli ATCC 25922; conditions: radial diffusion assay, n = 3
Excerpt: as §1, §2

Human Cat D = Human Cat D (Homo sapiens, UniProt P07339); conditions: 12.5 μM defensin, 125 nM Cat D (S:E 100), 0.1 M sodium citrate pH 3.5, 200 mM NaCl, 4 h, 30°C; RP-HPLC, 220 nm
Protocol: (§4) Chromatograms were analyzed by running the ChromoQuest Chromatography Workstation (Thermo Fisher Scientific, Les Ulis, France).

Human Cat S = Human Cat S (Homo sapiens, UniProt P25774); conditions: 12.5 μM defensin, 125 nM Cat S (S:E 100), 0.1 M sodium acetate pH 5.5, 2 mM DTT, 0.01% Brij35, 4 h, 30°C; RP-HPLC, 220 nm
chymotrypsin [3] = conditions: 12.5 μM defensin, 125 nM chymotrypsin (S:E 100), 0.1 M Tris/HCl pH 7.8, 20 mM CaCl2, 4 h, 30°C; RP-HPLC, 220 nm
Protocol: as §4

trypsin [4] = conditions: 12.5 μM defensin, 125 nM trypsin (S:E 100), 0.1 M Tris/HCl pH 8.0, 50 mM CaCl2, 100 mM NaCl, 4 h, 30°C; RP-HPLC, 220 nm
Protocol: as §4

Human Cat B = Human Cat B (Homo sapiens, UniProt P07858); conditions: 12.5 μM defensin, 125 nM Cat B (S:E 100), 0.1 M sodium acetate pH 5.5, 2 mM DTT, 0.01% Brij35, 4 h, 30°C; RP-HPLC, 220 nm
[5] = molecular target: Human neutrophil elastase (HNE) (Homo sapiens, UniProt P08246); conditions: 12.5 μM defensin, 125 nM HNE (S:E 100), 0.05 M HEPES pH 7.4, NP40 0.05%, 150 mM NaCl, 4 h, 30°C; RP-HPLC, 220 nm
Protocol: as §4

Human Cat L = Human Cat L (Homo sapiens, UniProt P07711); conditions: 12.5 μM defensin, 125 nM Cat L (S:E 100), 0.1 M sodium acetate pH 5.5, 2 mM DTT, 0.01% Brij35, 4 h, 30°C; RP-HPLC, 220 nm
[6] = system: Salmonella enterica serovar Typhimurium LT2 ATCC 700720; experiment: Radial diffusion antibacterial assay (MIC); assay type: cell-based; conditions: Table 3, mean +/- SEM, n = 3
Protocol: (§3) The antibacterial activity of purified AvBD2 and AvBD7 and of each enzyme-AvBD reaction mixture was measured by radial diffusion assay as described previously, allowing the determination of the minimal inhibitory concentration (MIC) against Staphylococcus aureus ATCC 29740 and against Escherichia coli ATCC 25922 as representative Gram-positive and Gram-negative strains, respectively. The reaction mixture without defensin added was used as negative control and the defensin alone was used as positive control. For AvBD7 and its major degradation product, MIC was determined towards three Gram-negative and three Gram-positive bacterial strains, respectively, including Pseudomonas aeruginosa ATCC 25010, Escherichia coli ATCC 25922, Salmonella enterica serovar Typhimurium LT2 ATCC 700720, Listeria monocytogenes strain EGD, Staphylococcus aureus ATCC 29740, and Streptococcus salivarius JIM 8780. The strain Salmonella enterica serovar Typhimurium LT2 was kindly provided by Dr Benoît Doublet (INRA, UMR1282 ISP, Nouzilly, France). The strain Streptococcus salivarius was a clinical strain isolated from blood culture, kindly provided by Dr Christine Delorme (INRA, UMR1319 MICALIS, Jouy en Josas, France).

[7] = system: Listeria monocytogenes strain EGD; experiment: Radial diffusion antibacterial assay (MIC); assay type: cell-based; conditions: Table 3, mean +/- SEM, n = 3
Protocol: as §3

[8] = system: Pseudomonas aeruginosa ATCC 25010; experiment: Radial diffusion antibacterial assay (MIC); assay type: cell-based; conditions: Table 3, mean +/- SEM, n = 3
Protocol: as §3

[9] = system: Streptococcus salivarius JIM 8780; experiment: Radial diffusion antibacterial assay (MIC); assay type: cell-based; conditions: Table 3, mean +/- SEM, n = 3
Protocol: as §3

Cat D = experiment: 125 nM Cat D in 0.1 M sodium citrate buffer, pH 3.5, 200 mM NaCl; conditions: human, 30°C, up to 4 h
trypsin [10] = experiment: 125 nM trypsin in 0.1 M Tris/HCl buffer, pH 8.0, 50 mM CaCl2, 100 mM NaCl; conditions: 30°C, up to 4 h
chymotrypsin [11] = experiment: 125 nM chymotrypsin in 0.1 M Tris/HCl buffer, pH 7.8, 20 mM CaCl2; conditions: 30°C, up to 4 h
Cat H = experiment: 125 nM Cat H in 0.1 M sodium acetate buffer, pH 5.5 containing 2 mM DTT and 0.01% Brij35; conditions: human, 30°C, up to 4 h
[12] = system: Human neutrophil elastase (HNE); experiment: 125 nM HNE in 0.05 M HEPES buffer, pH 7.4, NP40 0.05% 150 mM NaCl; conditions: 30°C, up to 4 h
Cat L = experiment: 125 nM Cat L in 0.1 M sodium acetate buffer, pH 5.5 containing 2 mM DTT and 0.01% Brij35; conditions: human, 30°C, up to 4 h
Cat S = experiment: 125 nM Cat S in 0.1 M sodium acetate buffer, pH 5.5 containing 2 mM DTT and 0.01% Brij35; conditions: human, 30°C, up to 4 h
Cat K = experiment: 125 nM Cat K in 0.1 M sodium acetate buffer, pH 5.5 containing 2 mM DTT and 0.01% Brij35; conditions: human, 30°C, up to 4 h
Cat B = experiment: 125 nM Cat B in 0.1 M sodium acetate buffer, pH 5.5 containing 2 mM DTT and 0.01% Brij35; conditions: human, 30°C, up to 4 h

Chain of Human Cat H (P09668 98-335): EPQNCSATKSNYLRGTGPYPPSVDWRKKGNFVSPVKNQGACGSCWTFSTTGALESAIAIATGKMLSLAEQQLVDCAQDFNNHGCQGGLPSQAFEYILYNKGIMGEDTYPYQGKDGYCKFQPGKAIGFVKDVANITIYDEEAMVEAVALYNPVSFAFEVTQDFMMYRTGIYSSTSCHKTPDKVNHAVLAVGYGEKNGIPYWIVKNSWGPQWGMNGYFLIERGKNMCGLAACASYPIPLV
Chain of Human Cat K (P43235 115-329): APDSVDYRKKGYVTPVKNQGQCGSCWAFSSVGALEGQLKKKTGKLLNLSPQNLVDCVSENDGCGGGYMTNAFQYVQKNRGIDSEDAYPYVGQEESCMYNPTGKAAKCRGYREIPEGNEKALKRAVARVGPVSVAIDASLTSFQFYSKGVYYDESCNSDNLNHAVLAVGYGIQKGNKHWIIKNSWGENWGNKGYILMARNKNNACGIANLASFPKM
Chain of Human Cat D (P07339 65-412): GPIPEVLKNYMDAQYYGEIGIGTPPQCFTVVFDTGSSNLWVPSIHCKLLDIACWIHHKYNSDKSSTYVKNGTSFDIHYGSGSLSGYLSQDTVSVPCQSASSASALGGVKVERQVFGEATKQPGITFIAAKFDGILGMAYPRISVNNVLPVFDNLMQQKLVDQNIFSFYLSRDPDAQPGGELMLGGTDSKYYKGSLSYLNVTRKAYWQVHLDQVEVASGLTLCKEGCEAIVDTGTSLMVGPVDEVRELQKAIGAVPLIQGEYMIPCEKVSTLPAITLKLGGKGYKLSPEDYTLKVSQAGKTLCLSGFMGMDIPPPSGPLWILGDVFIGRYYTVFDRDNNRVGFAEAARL
Chain of Human Cat S (P25774 115-331): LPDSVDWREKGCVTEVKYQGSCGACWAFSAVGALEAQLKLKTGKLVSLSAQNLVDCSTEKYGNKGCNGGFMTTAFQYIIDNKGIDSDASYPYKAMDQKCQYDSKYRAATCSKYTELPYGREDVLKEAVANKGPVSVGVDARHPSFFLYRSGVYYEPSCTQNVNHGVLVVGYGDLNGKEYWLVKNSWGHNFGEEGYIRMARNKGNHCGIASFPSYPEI
Chain of Human neutrophil elastase (HNE) (Homo sapiens, UniProt P08246) (P08246 30-267): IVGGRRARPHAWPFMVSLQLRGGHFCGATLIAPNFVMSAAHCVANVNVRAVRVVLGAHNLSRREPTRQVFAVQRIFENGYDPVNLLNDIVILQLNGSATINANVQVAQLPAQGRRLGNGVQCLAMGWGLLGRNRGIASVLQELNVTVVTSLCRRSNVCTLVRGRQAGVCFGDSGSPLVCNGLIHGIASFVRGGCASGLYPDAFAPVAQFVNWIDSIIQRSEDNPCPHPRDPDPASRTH
Chain of Human Cat L (P07711 114-333): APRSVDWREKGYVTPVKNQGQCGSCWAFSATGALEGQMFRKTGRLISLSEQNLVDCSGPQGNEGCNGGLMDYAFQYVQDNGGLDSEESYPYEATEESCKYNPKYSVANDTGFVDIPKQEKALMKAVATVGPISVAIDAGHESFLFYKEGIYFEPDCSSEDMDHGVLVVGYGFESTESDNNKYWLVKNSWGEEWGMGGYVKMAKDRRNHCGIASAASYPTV

Compound: CC[C@H](C)[C@@H]1NC(=O)[C@H](CC(C)C)NC(=O)[C@H](Cc2c[nH]cn2)NC(=O)[C@H](CO)NC(=O)[C@@H]2CCCN2C(=O)[C@@H]2CSSC[C@@H](C(=O)N[C@@H](CCCCN)C(=O)N[C@@H](Cc3c[nH]c4ccccc34)C(=O)N3CCC[C@H]3C(=O)N[C@@H](Cc3c[nH]c4ccccc34)C(=O)N[C@@H](CC(N)=O)C(=O)N[C@@H](C)C(=O)O)NC(=O)[C@@H]3CSSC[C@H](NC(=O)[C@H](Cc4ccccc4)NC(=O)[C@@H](N)CC(C)C)C(=O)N[C@@H](CCCCN)C(=O)NCC(=O)NCC(=O)N[C@@H](CO)C(=O)N[C@@H](CSSC[C@H](NC(=O)[C@H](CO)NC(=O)CNC(=O)[C@H](C(C)C)NC(=O)[C@H](CCCCN)NC1=O)C(=O)N[C@@H](Cc1ccccc1)C(=O)NCC(=O)N[C@@H](Cc1ccccc1)C(=O)N[C@@H](CCCNC(=N)N)C(=O)N[C@@H](CO)C(=O)N3)C(=O)N[C@@H](Cc1c[nH]cn1)C(=O)N[C@@H](Cc1ccccc1)C(=O)NCC(=O)NCC(=O)N2 [AvBD2] (HELM PEPTIDE1{L.F.C.K.G.G.S.C.H.F.G.G.C.P.S.H.L.I.K.V.G.S.C.F.G.F.R.S.C.C.K.W.P.W.N.A}$PEPTIDE1,PEPTIDE1,3:R3-29:R3|PEPTIDE1,PEPTIDE1,8:R3-23:R3|PEPTIDE1,PEPTIDE1,13:R3-30:R3$$$V2.0)
Hydrolysis by Cat H (Human Cat H): resistant to hydrolysis
Hydrolysis by Cat K (Human Cat K): totally digested
MIC (μM) S. aureus [1]: 1 ± 0 µM
MIC (μM) E. Coli ([2]; defensin alone or reaction mixture after 4 h at 30°C with cathepsin (S:E molar ratio 100), 0.1 M sodium acetate pH 5.5, 2 mM DTT, 0.01% Brij35, mean ± SEM, NI: no inhibition detected): 3 ± 2 µM
Hydrolysis by Cat D (Human Cat D): did not cleave
Hydrolysis by Cat S (Human Cat S): partially degraded
Hydrolysis by chymotrypsin (chymotrypsin [3]): did not cleave
Hydrolysis by trypsin (trypsin [4]): did not cleave
Hydrolysis by Cat B (Human Cat B): partially degraded
Hydrolysis by neutrophil elastase [5]: did not cleave
Hydrolysis by Cat L (Human Cat L): partially degraded

Compound: CC[C@H](C)[C@H](N)C(=O)N1CCC[C@H]1C(=O)N[C@@H](CCCNC(=N)N)C(=O)N1CCC[C@H]1C(=O)N[C@H](C(=O)N[C@@H](CC(=O)O)C(=O)N[C@H](C(=O)N[C@H]1CSSC[C@@H]2NC(=O)[C@H](CO)NC(=O)CNC(=O)[C@H]([C@@H](C)CC)NC(=O)CNC(=O)[C@H](CC(N)=O)NC(=O)[C@H](CC(N)=O)NC(=O)[C@@H]3CSSC[C@H](NC(=O)[C@H]([C@@H](C)CC)NC(=O)CNC(=O)[C@H](CC(N)=O)NC(=O)[C@H](CCCNC(=N)N)NC(=O)[C@H](CC(C)C)NC(=O)[C@H](CCCNC(=N)N)NC1=O)C(=O)N[C@@H](Cc1ccccc1)C(=O)N1CCC[C@H]1C(=O)NCC(=O)N[C@@H]([C@@H](C)CC)C(=O)N[C@@H](CSSC[C@@H](C(=O)N[C@@H](C)C(=O)N[C@@H](CCCNC(=N)N)C(=O)NCC(=O)N[C@@H](Cc1c[nH]c4ccccc14)C(=O)N[C@@H](CCCNC(=N)N)C(=O)N[C@@H](CO)C(=O)O)NC2=O)C(=O)N[C@@H](CCCNC(=N)N)C(=O)N[C@@H](CCCNC(=N)N)C(=O)N1CCC[C@H]1C(=O)N[C@@H](Cc1ccc(O)cc1)C(=O)N[C@@H](Cc1ccc(O)cc1)C(=O)N[C@@H](Cc1c[nH]c2ccccc12)C(=O)N[C@@H]([C@@H](C)CC)C(=O)NCC(=O)N[C@@H]([C@@H](C)O)C(=O)N3)[C@@H](C)O)[C@@H](C)CC [Ile4-AvBD7]
MIC (μM) Escherichia coli ([2]; Table 3, mean +/- SEM): 0.5 (± 0.1) μM
MIC (μM) Salmonella Typhimurium [6]: 1.4 (± 0.9) μM
MIC (μM) Listeria monocytogenes [7]: 0.2 (± 0.1) μM
MIC (μM) Pseudomonas aeruginosa [8]: 0.2 (± 0.1) μM
MIC (μM) Streptococcus salivarius [9]: 1.0 (± 0.5) μM

not cleaved (Cat D): did not cleave (4 hours)
not cleaved (trypsin [10]): did not cleave (4 hours)
not cleaved (chymotrypsin [11]): did not cleave (4 hours)
not cleaved (Cat H): resistant to hydrolysis (4 h)
not cleaved [12]: did not cleave (4 hours)
Compound: LFCKGGSCHFGGCPSHLIKVGSCFGFRSCCKWPWNA

not cleaved (Cat D): did not cleave (4 hours)
not cleaved (Cat L): fully resistant to hydrolysis (4 h)
not cleaved (Cat S): fully resistant to hydrolysis (4 h)
cleaved bond (Cat K): Phe3-Ile4
not cleaved (trypsin [10]): did not cleave (4 hours)
not cleaved (chymotrypsin [11]): did not cleave (4 hours)
not cleaved (Cat B): fully resistant to hydrolysis (4 h)
not cleaved (Cat H): resistant to hydrolysis (4 h)
not cleaved [12]: did not cleave (4 hours)
Compound: QPFIPRPIDTCRLRNGICFPGICRRPYYWIGTCNNGIGSCCARGWRS
